Measured values reported in US7563862B2, “Neural regeneration peptides and methods for their use in treatment of brain damage” (Neuren Pharmaceuticals Limited, priority 2001, dated 2009).
Ends that are not written are not given here.

Experiments:
embryonic cortical cells = experiment: haptotactic migration assay, cortical cells; format: cell-based, rat; conditions: 1 day in vitro
From the text: To test the cell adhesion and neuronal migration inducing properties of the NRPs a haptotactic migration cell assay was developed (Lu et al.,2001). For this purpose Transwell® cell culture dishes (Costar) with fitting inserts having pores therein with a 12 μm pore size were used to cultivate striatal and neocortical cells. In general, a test agent was adhered to the surface of a culture dish and an insert having pores was placed in culture medium over but not in contact with the surface of the culture dish. Test cells were placed in the inserts, and any cells migrating through the pores and onto the surface of the culture dish reflected chemattractiveness by the test molecule. Under these conditions, the surface of the culture dish would, over time, release some NRP molecules into the culture medium. It can be appreciated that the concentration of “free” NRP would be greater nearer the surface of the culture dish than at distances farther away from the culture dish, thereby creating a gradient in NRP concentration. […] By counting the number and morphology of such migrant cells, effects of NRPs on neuronal migration and differentiation can be evaluated. […]
For seeding striatal cells, 1.5 ml of Neurobasal/B27 medium was put into the culture dishes and 0.5 ml of NeurobasaVB27 medium was put into the insert. The assay was ready for cell seeding. […]

wild-type PC-12 cells = experiment: haptotactic migration assay, PC-12 cells; format: cell-based; conditions: 1 ng/ml coating followed by matrigel/PDL, 100,000 cells
Experimental: NRPs were tested for migration-inducing/chemoattractive activity on mouse neural stem cells, EGF-dependent immortalized mouse neural stem cell line MEB5 and wild-type PC-12 cells in a haptotactic migration assay as described below.
Initial NRP Coating. Control wells of Transwell plates (Coming) with 12 μm pore size were coated in 1.5 ml of the BSA/PBS vehicle. Remaining plates were coated using various concentrations of NRPs ranging between 1-100 ng/ml (prepared in PBS containing 10 ug/ml BSA). The plates were then incubated at 37° C. for 1 hr to coat. Wells were then rinsed 2× with 1 ml sterile PBS.
Laminin ([…]) for MEB-5 cells, PDL (50 μg/ml)+Matrigel for mouse primary stem cells and fibronectin (25 ug/ml)+matrigel for PC-12 cells were used as extracellular matrix (ECM) coating for the cells. All ECM compounds were diluted in PBS. 1.5 ml of the ECM per well was incubated for 2 hrs at room temperature. The wells were then rinsed once with Iml serum-free media (e.g. NB/B27) followed by 1 ml PBS wash.
A 5 ug/mL PDL/PLL mixture (in PBS) was used to coat inserts. Subsequently the inserts were rinsed with MilliQ water. […]

## SEPEARRAPGRKGGVVCASLAADW-NH2 [NRP-7 segment SW, 24-mer form of mouse NRP-7]
Embryonic cortical cells; 15 ng immobilized, 1 pg/ml in medium
  more neurons migrated to the culture dish bottom compared to BSA control: 49.8%
Embryonic cortical cells; 0.1 and 1 μg/ml coating in BSA
  number of cells with neurite outgrowth: significantly increased
wild-type PC-12 cells
  more PC-12 cells migrated compared with BSA vehicle: 333%
